Assay: xn = mol fraction of the nth substance listed
Settings: 101 kPa, Liquid

CC1COC(=O)O1 (configuration not stated) [4-methyl-1,3-dioxolan-2-one] + Cc1cccc(C)c1
Settings | mass density [kg/m3]
293.15 K, x2 = 0 | 1200.25
293.15 K, x2 = 0.0576 | 1173.76
293.15 K, x2 = 0.1263 | 1143.64
293.15 K, x2 = 0.1735 | 1123.83
293.15 K, x2 = 0.2267 | 1102.36
293.15 K, x2 = 0.2867 | 1079.14
293.15 K, x2 = 0.3548 | 1054
293.15 K, x2 = 0.4243 | 1029.6
293.15 K, x2 = 0.4671 | 1015.15
293.15 K, x2 = 0.5341 | 993.4
293.15 K, x2 = 0.5811 | 978.7
293.15 K, x2 = 0.6532 | 957.01
293.15 K, x2 = 0.7213 | 937.38
293.15 K, x2 = 0.7831 | 920.23
293.15 K, x2 = 0.8421 | 904.39
293.15 K, x2 = 0.9212 | 883.89
303.15 K, x2 = 0 | 1180.56
303.15 K, x2 = 0.0476 | 1159.4
303.15 K, x2 = 0.1178 | 1129.53
303.15 K, x2 = 0.1822 | 1103.48
303.15 K, x2 = 0.2248 | 1086.93
303.15 K, x2 = 0.2978 | 1059.75
303.15 K, x2 = 0.3681 | 1034.91
303.15 K, x2 = 0.4348 | 1012.48
303.15 K, x2 = 0.5038 | 990.33
303.15 K, x2 = 0.5598 | 973.11
303.15 K, x2 = 0.6139 | 957.05
303.15 K, x2 = 0.6738 | 939.89
303.15 K, x2 = 0.7355 | 922.85
303.15 K, x2 = 0.8021 | 905.11
303.15 K, x2 = 0.8837 | 884.19
303.15 K, x2 = 0.9475 | 868.42
313.15 K, x2 = 0 | 1161.28
313.15 K, x2 = 0.0564 | 1137.19
313.15 K, x2 = 0.1291 | 1107.58
313.15 K, x2 = 0.1781 | 1088.5
313.15 K, x2 = 0.2378 | 1066.16
313.15 K, x2 = 0.3021 | 1043.18
313.15 K, x2 = 0.3614 | 1022.91
313.15 K, x2 = 0.4243 | 1002.32
313.15 K, x2 = 0.4861 | 982.96
313.15 K, x2 = 0.5349 | 968.22
313.15 K, x2 = 0.5924 | 951.44
313.15 K, x2 = 0.6521 | 934.66
313.15 K, x2 = 0.7134 | 918.04
313.15 K, x2 = 0.7634 | 904.91
313.15 K, x2 = 0.8325 | 887.34
313.15 K, x2 = 0.9334 | 862.75
323.15 K, x2 = 0 | 1142.43
323.15 K, x2 = 0.0525 | 1120.74
323.15 K, x2 = 0.1203 | 1093.93
323.15 K, x2 = 0.1832 | 1070.24
323.15 K, x2 = 0.2498 | 1046.31
323.15 K, x2 = 0.3103 | 1025.54
323.15 K, x2 = 0.3667 | 1006.98
323.15 K, x2 = 0.4327 | 986.16
323.15 K, x2 = 0.4962 | 967.01
323.15 K, x2 = 0.5587 | 948.93
323.15 K, x2 = 0.6148 | 933.3
323.15 K, x2 = 0.6813 | 915.46
323.15 K, x2 = 0.7539 | 896.75
323.15 K, x2 = 0.8013 | 884.94
323.15 K, x2 = 0.8625 | 870.1
323.15 K, x2 = 0.9346 | 853.17
333.15 K, x2 = 0 | 1123.99
333.15 K, x2 = 0.0478 | 1104.87
333.15 K, x2 = 0.1249 | 1075.39
333.15 K, x2 = 0.1942 | 1050.25
333.15 K, x2 = 0.2571 | 1028.52
333.15 K, x2 = 0.3245 | 1006.29
333.15 K, x2 = 0.3878 | 986.36
333.15 K, x2 = 0.4313 | 973.16
333.15 K, x2 = 0.5138 | 949.16
333.15 K, x2 = 0.582 | 930.28
333.15 K, x2 = 0.6842 | 903.43
333.15 K, x2 = 0.7323 | 891.34
333.15 K, x2 = 0.7723 | 881.53
333.15 K, x2 = 0.8248 | 868.96
333.15 K, x2 = 0.8833 | 855.34
333.15 K, x2 = 0.9429 | 841.84
343.15 K, x2 = 0 | 1105.98
343.15 K, x2 = 0.0634 | 1081.55
343.15 K, x2 = 0.1278 | 1057.84
343.15 K, x2 = 0.1798 | 1039.5
343.15 K, x2 = 0.2348 | 1020.82
343.15 K, x2 = 0.3013 | 999.21
343.15 K, x2 = 0.3703 | 977.83
343.15 K, x2 = 0.4259 | 961.33
343.15 K, x2 = 0.4829 | 945.05
343.15 K, x2 = 0.5329 | 931.26
343.15 K, x2 = 0.5928 | 915.31
343.15 K, x2 = 0.6528 | 899.92
343.15 K, x2 = 0.7132 | 884.96
343.15 K, x2 = 0.7829 | 868.32
343.15 K, x2 = 0.8532 | 852.13
343.15 K, x2 = 0.9253 | 836.07
353.15 K, x2 = 0 | 1088.38
353.15 K, x2 = 0.0622 | 1065.11
353.15 K, x2 = 0.1199 | 1044.44
353.15 K, x2 = 0.1874 | 1021.32
353.15 K, x2 = 0.2401 | 1004.03
353.15 K, x2 = 0.3149 | 980.58
353.15 K, x2 = 0.3871 | 959.07
353.15 K, x2 = 0.451 | 940.91
353.15 K, x2 = 0.5249 | 920.84
353.15 K, x2 = 0.5832 | 905.67
353.15 K, x2 = 0.6591 | 886.72
353.15 K, x2 = 0.7249 | 870.97
353.15 K, x2 = 0.7719 | 860.05
353.15 K, x2 = 0.8529 | 841.86
353.15 K, x2 = 0.8941 | 832.88
353.15 K, x2 = 0.9483 | 821.31

Reference: the NIST ThermoML archive (doi:10.1016/j.jct.2005.01.017)
